Laboratory results: patent publication US20240299359A1, “PHARMACEUTICAL COMPOSITION FOR ANIMALS CONTAINING 5-HYDROXY-METHYLIMIDAZOLIDINE-2,4-DIONE COMPOUND AS ACTIVE INGREDIENT” (KYONGBO PHARM. CO., LTD., priority 2021, published 2024)
Where “and” joins values, the source holds several entries; their conditions need not be identical. Equal values may be shown once.

Experiments:
[1] = tested on: dogs with chronic renal failure; experiment: Therapeutic effect on dogs with chronic renal failure (blood creatinine); format: in vivo, dog; conditions: change before/after
Experimental: An experiment was conducted to determine the therapeutic effect and optimal dosage of 5-hydroxy-1-methylimidazolidine-2,4-dione in animal kidney disease. Dogs (5 dogs per group) diagnosed with chronic renal failure and with a blood creatinine concentration of 1.4 mg/dL or higher were treated with 5-hydroxy-methylimidazolidine-2,4-dione at […] of 0, 12.5, 25, 50, and 100 mg/kg for 2 months, and the change in blood creatinine concentration (AsCr) before and after administration was determined.

beagles = experiment: 13-week repeated oral toxicity: blood coagulation test (PT, aPTT, fibrinogen); format: in vivo, beagle
Experimental: Blood Coagulation Test (PT, aPTT, Fibrinogen)
2 ml of collected blood was placed in a 3.2% sodium citrate tube, and centrifuged at 4,000 rpm for 10 minutes at 4° C., and plasma was collected for blood coagulation analysis. Prothrombin time (PT), activated partial thromboplastin time (aPTT), and fibrinogen (FIB) were analyzed using a blood coagulation measuring device (Werfen ACL ELITE Pro).

[2] = G2 200 mg/kg, repeated administration for 13 week, female, group mean
[3] = G2 200 mg/kg, repeated administration for 13 week, female, individual animals
[4] = G2 200 mg/kg, repeated administration for 13 week, male, group mean
[5] = G2 200 mg/kg, repeated administration for 13 week, male, individual animals
[6] = G3 500 mg/kg, repeated administration for 13 week, female, group mean
[7] = G3 500 mg/kg, repeated administration for 13 week, female, individual animals
[8] = G3 500 mg/kg, repeated administration for 13 week, male, group mean
[9] = G3 500 mg/kg, repeated administration for 13 week, male, individual animals
[10] = G4 1,000 mg/kg, repeated administration for 13 week, female, group mean
[11] = G4 1,000 mg/kg, repeated administration for 13 week, female, individual animals
[12] = G4 1,000 mg/kg, repeated administration for 13 week, male, group mean
[13] = G4 1,000 mg/kg, repeated administration for 13 week, male, individual animals
[14] = before administration (day 0), 200 mg/kg group (G2), female, individual animals, 200 mg/kg
[15] = before administration (day 0), 200 mg/kg group (G2), female
[16] = before administration (day 0), 200 mg/kg group (G2), male, individual animals, 200 mg/kg
[17] = before administration (day 0), 200 mg/kg group (G2), male
[18] = before administration (day 0), 500 mg/kg group (G3), female, individual animals, 500 mg/kg
[19] = before administration (day 0), 500 mg/kg group (G3), female
[20] = before administration (day 0), 500 mg/kg group (G3), male, individual animals, 500 mg/kg
[21] = before administration (day 0), 500 mg/kg group (G3), male
[22] = before administration (day 0), 1,000 mg/kg group (G4), female, individual animals
[23] = before administration (day 0), 1,000 mg/kg group (G4), female
[24] = before administration (day 0), 1,000 mg/kg group (G4), male, individual animals
[25] = before administration (day 0), 1,000 mg/kg group (G4), male

With `CN1C(=O)NC(=O)C1O` (centres unmarked) [KBP-001, 5-hydroxy-1-methylimidazolidine-2,4-dione] the ΔsCr ([1]; high-dose 50 mg/kg for 2 months, 50 mg/kg) was -0.02 ± 0.22 mg/dL, the ΔsCr ([1]; high-dose 50 mg/kg for 2 months, listed as 5-hydroxy-1-methylimidazolidine-2,4-dione, 50 mg/kg) was -0.02 ± 0.22 mg/dL and the ΔsCr ([1]; highest-dose 100 mg/kg for 2 months, 100 mg/kg) was 0.07 ± 0.20 mg/dL. For the same compound, the ΔsCr ([1]; highest-dose 100 mg/kg for 2 months, listed as 5-hydroxy-1-methylimidazolidine-2,4-dione, 100 mg/kg) was 0.07 ± 0.20 mg/dL, the ΔsCr ([1]; low-dose 12.5 mg/kg for 2 months, 12.5 mg/kg) was 0.58 ± 0.49 mg/dL and the ΔsCr ([1]; low-dose 12.5 mg/kg for 2 months, listed as 5-hydroxy-1-methylimidazolidine-2,4-dione, 12.5 mg/kg) was 0.58 ± 0.49 mg/dL. The ΔsCr ([1]; medium-dose 25 mg/kg for 2 months, 25 mg/kg) was 0.10 ± 0.34 mg/dL, the ΔsCr ([1]; medium-dose 25 mg/kg for 2 months, listed as 5-hydroxy-1-methylimidazolidine-2,4-dione, 25 mg/kg) was 0.10 ± 0.34 mg/dL and the FIB (beagles; [2]) was 195.00 mg/dL. For the same compound, the PT (beagles; [2]) was 7.67 s, the aPTT (beagles; [2]) was 14.03 s and the FIB (beagles; [3]) was 170 mg/dL and 164 mg/dL and 251 mg/dL. For the same compound, the PT (beagles; [3]) was 7.6 sec (2×) and 7.8 sec, the aPTT (beagles; [3]) was 13.8 s and 13.3 s and 15.0 s and the FIB (beagles; [4]) was 293.00 mg/dL. The PT (beagles; [4]) was 7.87 s, the aPTT (beagles; [4]) was 13.13 s and the FIB (beagles; [5]) was 299 mg/dL and 268 mg/dL and 312 mg/dL. For the same compound, the PT (beagles; [5]) was 8.5 s and 8.2 s and 6.9 s, the aPTT (beagles; [5]) was 12.7 s and 13.0 s and 13.7 s and the FIB (beagles; [6]) was 250.00 mg/dL. For the same compound, the PT (beagles; [6]) was 7.53 s, the aPTT (beagles; [6]) was 14.37 s and the FIB (beagles; [7]) was 212 mg/dL and 230 mg/dL and 308 mg/dL. For the same compound, the PT (beagles; [7]) was 8.6 s and 6.7 s and 7.3 s, the aPTT (beagles; [7]) was 15.2 s and 13.7 s and 14.2 s and the FIB (beagles; [8]) was 312.67 mg/dL. The PT (beagles; [8]) was 7.20 s, the aPTT (beagles; [8]) was 15.17 s and the FIB (beagles; [9]) was 347 mg/dL and 302 mg/dL and 289 mg/dL. For the same compound, the PT (beagles; [9]) was 7.4 s and 7.2 s and 7.0 s, the aPTT (beagles; [9]) was 15.3 s and 14.8 s and 15.4 s and the FIB (beagles; [10]) was 307.00 mg/dL. For the same compound, the PT (beagles; [10]) was 7.57 s, the aPTT (beagles; [10]) was 14.03 s and the FIB (beagles; [11]) was 442 mg/dL and 273 mg/dL and 206 mg/dL. The PT (beagles; [11]) was 7.1 sec (2×) and 8.5 sec, the aPTT (beagles; [11]) was 12.9 s and 13.0 s and 16.2 s and the FIB (beagles; [12]) was 318.67 mg/dL. For the same compound, the PT (beagles; [12]) was 7.53 s, the aPTT (beagles; [12]) was 13.93 s and the FIB (beagles; [13]) was 292 mg/dL and 386 mg/dL and 278 mg/dL. The PT (beagles; [13]) was 7.6 s and 7.3 s and 7.7 s, the aPTT (beagles; [13]) was 15.2 s and 12.8 s and 13.8 s and the FIB (beagles; [14]) was 114 mg/dL and 184 mg/dL and 218 mg/dL. The PT (beagles; [14]) was 8.5 s and 7.6 s and 7.3 s, the aPTT (beagles; [14]) was 14.9 s and 15.3 s and 14.0 s and the “FIB, Mean” value (beagles; [15]) was 172.00 mg/dL. The “PT, Mean” value (beagles; [15]) was 7.80 s, the “aPTT, Mean” value (beagles; [15]) was 14.73 s and the FIB (beagles; [16]) was 270 mg/dL and 254 mg/dL and 233 mg/dL. For the same compound, the PT (beagles; [16]) was 9.2 s and 8.4 s and 7.2 s, the aPTT (beagles; [16]) was 15.5 s and 12.1 s and 12.4 s and the “FIB, Mean” value (beagles; [17]) was 252.33 mg/dL. The “PT, Mean” value (beagles; [17]) was 8.27 s, the “aPTT, Mean” value (beagles; [17]) was 13.33 s and the FIB (beagles; [18]) was 186 mg/dL and 199 mg/dL and 268 mg/dL. The PT (beagles; [18]) was 8.8 s and 7.4 s and 7.9 s, the aPTT (beagles; [18]) was 14.5 s and 11.9 s and 13.8 s and the “FIB, Mean” value (beagles; [19]) was 217.67 mg/dL. The “PT, Mean” value (beagles; [19]) was 8.03 s, the “aPTT, Mean” value (beagles; [19]) was 13.40 s and the FIB (beagles; [20]) was 235 mg/dL and 254 mg/dL and 239 mg/dL. For the same compound, the PT (beagles; [20]) was 7.6 s and 7.2 s and 7.3 s, the aPTT (beagles; [20]) was 15.2 s and 14.6 s and 12.1 s and the “FIB, Mean” value (beagles; [21]) was 242.67 mg/dL. For the same compound, the “PT, Mean” value (beagles; [21]) was 7.37 s, the “aPTT, Mean” value (beagles; [21]) was 13.97 s and the FIB (beagles; [22]) was 237 mg/dL and 230 mg/dL and 258 mg/dL. For the same compound, the PT (beagles; [22]) was 7.6 s and 7.8 s and 8.3 s, the aPTT (beagles; [22]) was 11.1 s and 14.2 s and 15.6 s and the “FIB, Mean” value (beagles; [23]) was 194.73 mg/dL. The “PT, Mean” value (beagles; [23]) was 6.53 s, the “aPTT, Mean” value (beagles; [23]) was 11.62 s and the FIB (beagles; [24]) was 305 mg/dL and 312 mg/dL and 237 mg/dL. The PT (beagles; [24]) was 8.3 s and 7.2 s and 8.0 s, the aPTT (beagles; [24]) was 14.8 s and 11.3 s and 14.7 s and the “FIB, Mean” value (beagles; [25]) was 200.81 mg/dL. For the same compound, the “PT, Mean” value (beagles; [25]) was 6.57 s and the “aPTT, Mean” value (beagles; [25]) was 11.52 s.
